Experiments:
[1] = Acute toxicity administered orally was determined in 74 male rats; conditions: rat, in vivo, po
[2] = Acute toxicity administered orally was determined in 85 female rats; conditions: rat, in vivo, po
[3] = Acute toxicity administered intra peritoneally was determined in 74 male rats; conditions: rat, in vivo, ip
[4] = Acute toxicity administered intra peritoneally was determined in 85 female rats; conditions: rat, in vivo, ip
[5] = Molar primaquine index is ratio of ED50 of Compound by ED50 of primaquine in rhesus monkey; assay type: functional
[6] = Molar primaquine index is ratio of ED50 of Primaquine by ED50 of primaquine in rhesus monkey; assay type: functional
[7] = Acute toxicity administered intraperitoneally was determined in male rats; assay type: organism-based; conditions: rat, in vivo, ip
[8] = Acute toxicity administered orally was determined in female rats; assay type: organism-based; conditions: rat, in vivo, po
[9] = Acute toxicity administered orally was determined in male rats; assay type: organism-based; conditions: rat, in vivo, po
[10] = Acute toxicity administered intraperitoneally was determined in female rats; assay type: organism-based; conditions: rat, in vivo, ip

Compound `COc1cc(NC(C)CCCN)c2nccc(C)c2c1Oc1cccc(C(F)(F)F)c1` (configuration not stated) has an LD50 [1] of 256 mg/kg, an LD50 [2] of 401 mg/kg and an LD50 [3] of 86 mg/kg. The LD50 [4] was 54 mg/kg and the Ratio [5] was 6.8.

For `COc1cc(NC(C)CCCN)c2nc(OC)cc(C)c2c1` (configuration not stated), the Ratio [5] was 6.8.

Compound `COc1cc(NC(C)CCCN)c2ncccc2c1` (configuration not stated) [PRIMAQUINE] has a Ratio [6] of 1.

`COc1cc(C)c2c(Oc3cccc(C(F)(F)F)c3)c(OC)cc(NC(C)CCCN)c2n1` (configuration not stated) [TAFENOQUINE] gave an LD50 [7] of 102 mg/kg, an LD50 [8] of 416 mg/kg and an LD50 [9] of 429 mg/kg. For the same compound, the LD50 [10] was 71 mg/kg and the Ratio [5] was 12.8.
